Patent US7087758B2, “Quinoline inhibitors of hyaki and hyak3 kinases” (SmithKline Beecham Corporation, priority 2001, dated 2006)
“And” between values parts separate entries of the source, which are not always exact repeats. Equal values may be shown once.

Biological target: T1, hYAK1 (Homo sapiens, UniProt Q92630)
T1 construct: DET1/DET2-tagged full length hYAK1 was expressed in Drosophila sf9 cells; DET1/DET2 tag (purified on Ni column); made in house; host or cells: "Drosophila sf9 cells" as printed (insect cells)
T1 sequence (Q92630 1-528 isoform Q92630-2): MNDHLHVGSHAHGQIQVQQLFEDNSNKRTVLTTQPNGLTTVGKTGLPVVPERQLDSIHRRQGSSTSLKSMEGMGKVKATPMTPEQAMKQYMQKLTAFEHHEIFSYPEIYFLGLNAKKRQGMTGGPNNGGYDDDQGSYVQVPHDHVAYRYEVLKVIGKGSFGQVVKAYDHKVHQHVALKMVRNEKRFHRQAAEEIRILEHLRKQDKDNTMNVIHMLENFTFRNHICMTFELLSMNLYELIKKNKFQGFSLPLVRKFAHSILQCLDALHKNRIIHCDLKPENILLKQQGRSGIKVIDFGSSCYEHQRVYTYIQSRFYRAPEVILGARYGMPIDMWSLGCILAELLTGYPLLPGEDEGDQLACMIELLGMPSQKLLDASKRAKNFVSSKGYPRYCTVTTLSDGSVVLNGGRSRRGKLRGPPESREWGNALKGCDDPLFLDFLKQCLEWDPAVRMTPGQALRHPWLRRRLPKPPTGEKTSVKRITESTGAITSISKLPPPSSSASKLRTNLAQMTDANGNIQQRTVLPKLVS
Assay: FlashPlate kinase assay of hYAK1 (Ni-hYAK1)
Assay type: biochemical
Description: This same assay can be performed on a FlashPlate format in which the plate is coated with MBP or with the S164 peptide by incubation overnight at 4° C. in 100 ul of either substrate dissolved in Sodium Carbonate buffer, pH 8.8. When coating with MBP, a solution of 100 ug/ml MBP was used to coat wells with 100 ul (10 ug) MBP per well. When coating with Ser164, a solution of 0.4 mg/ml (0.25 mM) was used to coat wells with 100 ul (40 ug) Ser164 per well. An example of a FlashPlate assay protocol and typical results are given below:
• 1. Coat Maxisorp plates (Nunk, Immunoplate, Maxisorp™) with MBP or Ser164 as above. • 2. Wash plates once with kinase assay buffer (KB): 25 mM Hepes, pH 7.5; 0.2 mM NaV; 10 mM.-glycerol phosphate; 1 mM Na pyrophosphate • 3. Add enzyme (Ni-hYAK1, diluted in KB), DMSO or inhibitors (in KB) and keep on ice 30 min • 4. Add KB containing Mg/AJP to a [final] of 0.1 mM [.-33P]ATP and 10 mM MgCl2 • 5. Incubate with shaking, 1–2 hrs, RT • 6. Aspirate and wash 6×0.5 ml KB • 7. Read 33P incorporation in FP reader • 8. Blank=No enzyme added • 9. Reaction volume: 25, 50 or 100 ul • 10. 0.5 or 1.0 uCi 33P/0.1 mM ATP • 11. MBP-FP better than basic FP (in house coating) • 12. 37° C. incubation was not better (several time points) • 13. Other incubation times at RT were not better Results: […]

SMILES | IC50 (0.3 ug hYAK1) | IC50 (0.1 ug hYAK1) [nM]
COC(=O)[C@@]1(O)C[C@H]2O[C@]1(C)n1c3ccccc3c3c4c(c5c6ccccc6n2c5c31)C(=O)NC4 [Example K252a] | 552 nM and 427 nM | 
NC1=N/C(=C2/CCNC(=O)c3[nH]c(Br)cc32)C(=O)N1 [SKF-108752] | 130 nM and 160 nM | 190
